Experimental findings from article PMC5150661 (Journal of Medicinal Chemistry, 2016) are described below.

The format of series [1] is in vitro ADME. Particulars: liver microsomes. (In general: Liver microsomes are vesicles of endoplasmic reticulum, rich in cytochrome P450 enzymes.)
For series [2] the following is noted: 1% DMSO, nephelometry; for Sol2.0: 0.01 M HCl (approximately pH 2.0); for Sol6.5: pH 6.5 phosphate buffer.
Series [3] can be described thus: Mouse exposure study after oral administration. It counts as in vivo, male Swiss outbred mice. The note with it: after oral administration of 100 mg/kg of 1.

Molecules are shown by their SMILES.

Regarding `O=C1CNC(=O)N1c1ccc(F)c(C(F)(F)F)c1` [Compd 22], the “metabolic stability (in words)” value in series [1] is “high metabolic stabilities”. Besides, in series [2], the Sol2.0 is reported as >100/>100 μg/mL and the Sol6.5 was >100/>100 μg/mL.

On to `CC(C)(NC(=O)Nc1ccc(F)c(C(F)(F)F)c1)C(=O)O` [Compd 36, 2-[3-[4-Fluoro-3-(trifluoromethyl)phenyl]ureido]-2-methylpropanoic acid], for which the “exposure of metabolite relative to 1, based on AUC0–24h” value in series [3] was less than 1%. This compound yielded a Sol2.0 in series [2] of 25 to 50 µg/mL.

In the case of `CC1(C)CC(=O)N(c2ccc(F)c(C(F)(F)F)c2)C1=O` [Compd 29, 1-[4-Fluoro-3-(trifluoromethyl)phenyl]-3,3-dimethylpyrrolidine-2,5-dione], in series [2], the Sol2.0 is listed as 12.5–25/12.5–25 μg/mL and the Sol6.5 is reported as 12.5–25/12.5–25 μg/mL.

For `CC1(C)C(=O)N(c2ccc(F)c(C(F)(F)F)c2)C(=O)N1S(C)(=O)=O` [Compd 7, 3-[4-Fluoro-3-(trifluoromethyl)phenyl]-5,5-dimethyl-1-(methylsulfonyl)imidazolidine-2,4-dione], the “metabolic stability (in words)” value in series [1] was “highly stable”. Moreover, in series [2], the Sol2.0 is listed as 1.6–3.1/1.6–3.1 μg/mL and the Sol6.5 was 1.6–3.1/1.6–3.1 μg/mL.

Regarding `CC1(C)C(=O)N(c2ccc(F)c(C(F)(F)F)c2)C(=O)N1CC#N` [Compd 5, 2-[3-[4-Fluoro-3-(trifluoromethyl)phenyl]-5,5-dimethyl-2,4-dioxoimidazolidin-1-yl]acetonitrile], in series [2], the Sol2.0 is given as 25–50/25–50 μg/mL and the Sol6.5 is 25–50/25–50 μg/mL.

For `CC1(C)C(=O)NC(=O)N1c1ccc(F)c(C(F)(F)F)c1` [Compd 33, 1-[4-Fluoro-3-(trifluoromethyl)phenyl]-5,5-dimethylimidazolidine-2,4-dione], in series [2], the Sol2.0 is 25–50/25–50 μg/mL and the Sol6.5 is given as 25–50/25–50 μg/mL.

Turning to `CCN1C(=O)N(c2ccc(F)c(C(F)(F)F)c2)C(=O)C1(C)C` [Compd 3, 1-Ethyl-3-[4-fluoro-3-(trifluoromethyl)phenyl]-5,5-dimethylimidazolidine-2,4-dione], in series [1], the metabolic reactions observed entry is given as “N-dealkylation metabolic reactions to form 1” and the “metabolic stability (in words)” value is “intermediate”. For the same compound, in series [2], the Sol2.0 was 50 to 100 µg/mL and the Sol6.5 lay within 25 to 50 µg/mL.

For the compound `CC1(C)CN(c2ccc(F)c(C(F)(F)F)c2)C(=O)N1` [Compd 32, 1-[4-Fluoro-3-(trifluoromethyl)phenyl]-4,4-dimethylimidazolidin-2-one], in series [2], the Sol2.0 was 12.5–25/12.5–25 μg/mL and the Sol6.5 is 12.5–25/12.5–25 μg/mL.

In the case of `O=C1NC2(CCCC2)C(=O)N1c1ccc(F)c(C(F)(F)F)c1` [Compd 26, 3-[4-Fluoro-3-(trifluoromethyl)phenyl]-1,3-diazaspiro[4.4]nonane-2,4-dione], the “metabolic stability (in words)” value in series [1] is on record as “decreased the metabolic stabilities”. Moreover, in series [2], the Sol2.0 is on record as 50–100/50–100 μg/mL and the Sol6.5 is recorded as 50–100/50–100 μg/mL.

As to `CC1(CO)NC(=O)N(c2ccc(F)c(C(F)(F)F)c2)C1=O` (centres unmarked) [Compd 25, 3-[4-Fluoro-3-(trifluoromethyl)phenyl]-5-(hydroxymethyl)-5-methylimidazolidine-2,4-dione], the “exposure of metabolite relative to 1, based on AUC0–24h” value in series [3] was “approximately 3%”. Besides, in series [1], the “metabolic stability (in words)” value is “high metabolic stabilities”. Further, in series [2], the Sol2.0 is on record as 25–50/25–50 μg/mL and the Sol6.5 is listed as 25–50/25–50 μg/mL.

`CC1(C)CC(=O)N(c2ccc(F)c(C(F)(F)F)c2)C(=O)N1` [Compd 34, 3-[4-Fluoro-3-(trifluoromethyl)phenyl]-6,6-dimethyldihydropyrimidine-2,4(1H,3H)-dione]: in series [2], the Sol2.0 was 25–50/25–50 μg/mL and the Sol6.5 is on record as 25–50/25–50 μg/mL.

With `CN1C(=O)N(c2ccc(F)c(C(F)(F)F)c2)C(=O)C1(C)C` [Compd 2, 3-[4-Fluoro-3-(trifluoromethyl)phenyl]-1,5,5-trimethylimidazolidine-2,4-dione], in series [1], the metabolic reactions observed result is “N-dealkylation metabolic reactions to form 1” and the “metabolic stability (in words)” value is recorded as “intermediate”. For the same compound, in series [2], the Sol2.0 is reported as 50–100/50–100 μg/mL and the Sol6.5 is on record as 50–100/50–100 μg/mL.

As for `O=C1NC2(CCCCC2)C(=O)N1c1ccc(F)c(C(F)(F)F)c1` [Compd 27, 3-[4-Fluoro-3-(trifluoromethyl)phenyl]-1,3-diazaspiro[4.5]decane-2,4-dione], in series [1], the “metabolic stability (in words)” value is “decreased the metabolic stabilities”. In series [2], the Sol2.0 is 3.1–6.3/3.1–6.3 μg/mL and the Sol6.5 is recorded as 3.1–6.3/3.1–6.3 μg/mL.

Consider `CC1(C)C(=O)N(c2ccc(F)c(C(F)(F)F)c2)C(=O)N1CCc1ccccc1` [Compd 6, 3-[4-Fluoro-3-(trifluoromethyl)phenyl]-5,5-dimethyl-1-phenethylimidazolidine-2,4-dione], for which the “metabolic stability (in words)” value in series [1] is “unstable”. In addition, in series [2], the Sol2.0 lay within 12.5 to 25 µg/mL and the Sol6.5 lay within 25 to 50 µg/mL.

As to `CC1(C)NC(=O)C(c2ccc(F)c(C(F)(F)F)c2)C1=O` (centres unmarked) [Compd 31, 3-[4-Fluoro-3-(trifluoromethyl)phenyl]-5,5-dimethylpyrrolidine-2,4-dione], the Sol2.0 in series [2] lay within 25 to 50 µg/mL.

For `CC1(C)CNC(=O)N(c2ccc(F)c(C(F)(F)F)c2)C1=O` [Compd 35, 3-[4-Fluoro-3-(trifluoromethyl)phenyl]-5,5-dimethyldihydropyrimidine-2,4(1H,3H)-dione], in series [2], the Sol2.0 is recorded as 12.5–25/12.5–25 μg/mL and the Sol6.5 is 12.5–25/12.5–25 μg/mL.

In the case of `CC1(C)C(=O)N(c2ccc(F)c(C(F)(F)F)c2)C(=O)N1S(=O)(=O)c1ccccc1` [Compd 8, 3-[4-Fluoro-3-(trifluoromethyl)phenyl]-5,5-dimethyl-1-(phenylsulfonyl)imidazolidine-2,4-dione], the “metabolic stability (in words)” value in series [1] is “unstable”. In series [2], the Sol2.0 is on record as <1.6/<1.6 μg/mL and the Sol6.5 was <1.6/<1.6 μg/mL.

As to `O=C1C2CCCN2C(=O)N1c1ccc(F)c(C(F)(F)F)c1` (centres unmarked) [Compd 28, 2-[4-Fluoro-3-(trifluoromethyl)phenyl]tetrahydro-1H-pyrrolo[1,2-c]imidazole-1,3(2H)-dione], in series [1], the “metabolic stability (in words)” value was “decreased the metabolic stabilities”. Further, in series [2], the Sol2.0 is on record as 25–50/25–50 μg/mL and the Sol6.5 is given as 25–50/25–50 μg/mL.

`CC1(C)OC(=O)N(c2ccc(F)c(C(F)(F)F)c2)C1=O` [Compd 30, 3-[4-Fluoro-3-(trifluoromethyl)phenyl]-5,5-dimethyloxazolidine-2,4-dione]: in series [2], the Sol2.0 was 3.1–6.3/3.1–6.3 μg/mL and the Sol6.5 is given as 3.1–6.3/3.1–6.3 μg/mL.
